We go through one compound from US10004702B2, “Linear guanidine derivatives, methods of preparation and uses thereof” (LEAD DISCOVERY SIENA S.R.L., priority 2014, dated 2018).

≈ marks a conversion by molar mass, not a printed value. Some results are limits rather than exact numbers.

In data set [1] the test system is Bacillus subtilis ATCC 6633. Put plainly: Bactericidal activity (MBC). The data set is classed as cell-based. Particulars: ATCC6633.
The subject of another data set is Escherichia coli CCUG^T. In words: Bactericidal activity (MBC). The data set is classed as cell-based.
The test system of data set [2] is Klebsiella pneumoniae 081R. Put plainly: Bactericidal activity (MBC). The data set is classed as cell-based.
For another data set, the system named is Burkholderia cepacia RII. Put plainly: Bactericidal activity (MBC). The data set is classed as cell-based.
The subject of data set [3] is Staphylococcus aureus ATCC 25923. Put plainly: Bactericidal activity (MBC). Particulars: ATCC25923. The data set is classed as cell-based.
Data set [4] deals with Pseudomonas aeruginosa ATCC 27853. Put plainly: Bactericidal activity (MBC). The data set is classed as cell-based. The conditions noted are these: ATCC27853.
Data set [5] relates to Gram-positive and Gram-negative organisms. In words: Antimicrobial susceptibility testing, overall statements on the panel. The data set is classed as cell-based. The conditions noted are these: overall comparison over the tested strains. The procedure:
(§1) Bacterial strains were obtained from the ATCC or CCUG culture collections or present in the authors' collection of clinical isolates. Compounds were re-suspended in dimethyl sulfoxyde (DMSO) at a final concentration of 10 mg/ml and subsequently diluted in the culture medium. The minimum inhibitory concentrations (MICs) of the compounds of the invention were determined using the microdilution broth method using Mueller-Hinton broth as recommended by the Clinical Laboratory Standards Institute (CLSI [11]). Bacterial inoculum was 5×10^4 CFU/well. MICs were recorded after 18-24 hours incubation at 35-37° C.

Data set [6] concerns Bacillus subtilis ATCC 6633. In words: Antimicrobial susceptibility testing, MIC by microdilution broth method. The data set is classed as cell-based. Particulars: ATCC6633, Mueller-Hinton broth, 18-24 hours at 35-37° C., read-out: MIC. The method, then: as §1
Background: Broth dilution looks for growth in wells or tubes with falling amounts of substance.

The test system of data set [7] is Acinetobacter baumannii ATCC 17978. The data set is described as above. The data set is classed as cell-based. Particulars: ATCC17978, Mueller-Hinton broth, 18-24 hours at 35-37° C., read-out: MIC. The method, then:
as §1

Data set [8] has as its system Stenotrophomonas maltophilia 634/08. In words: Bactericidal activity (MBC). The data set is classed as cell-based.
Data set [9] deals with Enterococcus faecalis ATCC 19433. Put plainly: Bactericidal activity (MBC). The data set is classed as cell-based. The conditions noted are these: ATCC19433.
Data set [10] concerns Acinetobacter baumannii ATCC 17978. Put plainly: Bactericidal activity (MBC). The data set is classed as cell-based. The conditions noted are these: ATCC17978.
For data set [11], the system named is Klebsiella pneumoniae ATCC 13833. Put plainly: Bactericidal activity (MBC). The data set is classed as cell-based. Particulars: ATCC13833.
Data set [12] relates to human liver microsomial enzymes. Put plainly: Metabolic stability assay. Particulars: human liver microsomes, 1 h of incubation at 37° C., 50 μM. The data set is classed as in vitro ADME. The method, then: The reaction was stopped by cooling in ice and adding 1.0 mL of acetonitrile. The reaction mixtures were then centrifuged, and the parent drug and metabolites were subsequently determined by LC-UV-MS as reported for the solubility assay
For orientation: Liver microsomes are a subcellular fraction often used to study metabolism.

The test system of data set [13] is Acinetobacter baumannii AC-54/97 (IMP-2). Put plainly: Bactericidal activity (MBC). The data set is classed as cell-based.
Data set [14] relates to Chryseobacterium meningosepticum CCUG 4310. Put plainly: Bactericidal activity (MBC). The data set is classed as cell-based. Particulars: Elizabethkingia meningoseptica, CCUG4310.
Data set [15] can be described thus: Parallel Artificial Membrane Permeability Assay (PAMPA). The data set is classed as in vitro ADME. Particulars: pH 7.4, 5 h at room temperature, read-out: apparent permeability (Papp). The method, then:
Donor solution (0.5 mM) was prepared by diluting 1 mM dimethylsulfoxide (DMSO) compound stock solution using tris-HCl buffer (50 mM) at pH 7.4. Filters were coated with 5 μL of a 1% (w/v) dodecane solution of phosphatidylcholine. Donor solution (150 μL) was added to each well of the filter plate. To each well of the acceptor plate were added 300 μL of solution (50% DMSO in phosphate buffer). Compound 28 was tested in three different plates on different days. The sandwich was incubated for 5 h at room temperature under gentle shaking. After the incubation time, the plates were separated, and samples were taken from both receiver and donor sides and analyzed using LC with UV detection at 210 and 254 nm. LC analysis were performed with a Perkin-Elmer (series 200) instrument equipped with an UV detector (Perkin-Elmer […], UV/vis Detector). Chromatographic separation were conducted using a Polaris C18 column (150-4.6 mm, 5 μm particle size) at a flow rate of 0.8 mL min-1 with a mobile phase composed of 50% CH3CN/50% H2O-formic acid 0.1%. Permeability (Papp) was calculated according to equation 1, obtained from Sugano [12] and Wohnsland [13] equation with some modification to obtain values in cm/s. […]

A further data set is described as follows: Water solubility. The data set is classed as physicochemical. Particulars: thermodynamic from solid, room temperature, LC-UV-MS. The method, then:
Solid compound 28 (1.01 mg) was added to 1 mL of water. The sample was shaken in a shaker bath at room temperature for 24 h. The suspension was filtered through a 0.45-μm nylon filter (Acrodisc), and the solubilised compound determined by LC-UV-MS assay. The determination was performed in triplicate. For the quantification was used an LC-UV-MS system consisted of a Varian apparatus (Varian Inc) including a vacuum solvent degassing unit, two pumps (212-LC), a Triple Quadrupole MSD (Mod. 320-LC) mass spectrometer with ES interface and Varian MS Workstation System Control Vers. 6.9 software. Chromatographic separation was obtained using a Pursuit C18 column (50×2.0 mm) (Varian) with 3 μm particle size and gradient elution: eluent A being CH3CN and eluent B consisting of an aqueous solution of formic acid (0.1%).
The flow rate was 0.4 ml/min and injection volume was 20 μL. The instrument operated in positive mode and parameters were: detector 1850 V, drying gas pressure 25.0 psi, desolvation temperature 300.0° C., nebulizing gas 45.0 psi, needle 5000 V and shield 600 V. Nitrogen was used as nebulizer and drying gas. Collision induced dissociation was performed using Argon as the collision gas at a pressure of 1.8 mTorr in the collision cell, the collision energy was set to 149 eV. UV lamp was set to 210 nm. […]

For the next data set, the target named is Human Serum Albumin (Homo sapiens, UniProt P02768). In words: Binding fluorimetric assay (tryptophan quenching). Particulars: fixed concentration of HSA titrated with different amounts of compound. The procedure:
The solutions were mixed and after allowing 30 minutes at room temperature to reach the equilibrium conditions, the spectra were recorded. […] The percentages obtained were plotted against the concentrations used and the KD values were calculated using GraphPad software (version 5.0).

Chain of Human Serum Albumin (P02768 25-609): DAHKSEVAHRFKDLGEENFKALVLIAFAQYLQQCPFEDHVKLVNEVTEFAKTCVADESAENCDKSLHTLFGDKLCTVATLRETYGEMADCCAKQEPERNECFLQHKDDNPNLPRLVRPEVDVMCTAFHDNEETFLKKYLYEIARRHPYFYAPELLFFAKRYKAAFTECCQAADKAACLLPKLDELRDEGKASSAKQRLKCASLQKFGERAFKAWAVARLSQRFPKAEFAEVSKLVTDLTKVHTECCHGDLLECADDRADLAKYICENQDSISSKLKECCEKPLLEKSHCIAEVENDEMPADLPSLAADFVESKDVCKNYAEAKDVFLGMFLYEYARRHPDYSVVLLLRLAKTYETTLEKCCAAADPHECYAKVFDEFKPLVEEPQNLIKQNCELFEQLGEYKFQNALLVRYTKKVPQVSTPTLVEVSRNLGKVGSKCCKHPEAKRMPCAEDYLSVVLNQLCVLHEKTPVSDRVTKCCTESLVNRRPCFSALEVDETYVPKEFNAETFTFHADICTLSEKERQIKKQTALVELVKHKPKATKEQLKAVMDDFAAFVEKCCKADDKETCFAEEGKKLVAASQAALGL

Regarding `N=C(N)NCCCCCCCCN(CCCCCCCCNC(=N)NCC1CC1)C(=O)N(CCCCCCCCNC(=N)N)CCCCCCCCNC(=N)NCC1CC1` [Compound 28, 1,3-bis(8-(3-(cyclopropylmethyl)guanidino)octyl)-1,3-bis(8-guanidinooctyl)urea], the MBC (in general, the lowest tested concentration that kills the bacteria rather than only halting them) in [1] worked out at 0.5 µg/mL (≈ 0.591 µM); in the data set with Escherichia coli CCUG^T, 1 µg/mL (≈ 1.18 µM); in [2] it was 2 µg/mL (≈ 2.37 µM); against Burkholderia cepacia RII, 8 µg/mL (≈ 9.46 µM); in data set [3] it was 2 µg/mL (≈ 2.37 µM); in data set [4], 4 µg/mL (≈ 4.73 µM). Besides, the minimum bactericidal concentration (MBC) is 16 µg/mL (≈ 18.9 µM) in data set [8]; below 0.125 µg/mL in data set [9]; 4 µg/mL (≈ 4.73 µM) in [10]; 1 µg/mL (≈ 1.18 µM) in data set [11]; 2 µg/mL (≈ 2.37 µM) in data set [13]; 64 µg/mL (≈ 75.7 µM) in [14]. In addition, the “antimicrobial activity (in words)” value in data set [5] is reported as “most active among the series”. For the same compound, in data set [5], the “antimicrobial spectrum (in words)” value was “active against both Gram-positive and Gram-negative organisms”. Moreover, the MIC (usually the lowest concentration found to suppress growth) in data set [6] is 0.5 µg/mL (≈ 0.591 µM); in [7], 4 µg/mL (≈ 4.73 µM). In [12], this compound displayed a metabolic stability of 99.9%. The apparent permeability coefficient (Papp) (commonly a coefficient for how fast a substance crosses the barrier) at 5 h, 0.5 mM in [15] came out at 1.6 ×10⁻⁶ cm/s. For the same compound, the solubility (as a rule, how much of the substance goes into solution per volume) at 24 h in “Water solubility” amounted to 292 µg/mL (≈ 345 µM). On Human Serum Albumin, the “intrinsic fluorescence decrease of HSA” value was “scarce intrinsic fluorescence decrease”.
